Some test systems named below: 786-0; CCRF-CEM; COLO 205; HL-60; HOP-62; K562; Malme-3M; NCI-H522; RPMI-8226; RXF 393; SF-539; SK-MEL-28; SK-OV-3; SR; TK-10; UACC-257; UACC-62; HCT-15.
Holding throughout (test): growth of human tumour cells (NCI), 48 h

Each structure is given as a SMILES string.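 Exposure lasted 48 hours, with cells grown in 96-well plates and compounds tested at five concentrations. GI50: concentration for 50% inhibition of growth.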 Activity calls are given as the source filed them. No stated cut-off is given here; in the data, active = GI50 up to about 1.1 µM and inactive = higher. Bounds are passed on as bounds.

As to `CN(O)C(=O)c1ccccc1`, the GI50 in the experiment on 786-0, in the experiment on CCRF-CEM, in the experiment on COLO 205, in the experiment with HL-60, in the experiment with HOP-62 and with K562 was > 100 µM (inactive) each time. For the same molecule, the GI50 in the experiment on Malme-3M, in the experiment on NCI-H522, in the experiment with RPMI-8226, in the experiment on RXF 393, in the experiment on SF-539 and in the experiment with SK-MEL-28 was > 100 µM (inactive) each time. The GI50 with SK-OV-3, with SR, with TK-10, in the experiment with UACC-257 and in the experiment on UACC-62 was > 100 µM (inactive) each time.
For the molecule `OCCN1CCN(CC/C=C2/c3ccccc3Sc3ccc(Cl)cc32)CC1`, the GI50 in the experiment on CCRF-CEM is 8.41 µM (inactive); with COLO 205, 9.73 µM (inactive); with HCT-15, 13.4 µM; with HL-60 it was 1.76 µM (inactive); in the experiment with HOP-62, 16.1 µM (inactive); in the experiment on K562, 2.56 µM (inactive). Further, the GI50 with Malme-3M was 5.33 µM (inactive); with NCI-H522, 16.4 µM (inactive); with RPMI-8226, 9.82 µM (inactive); in the experiment on RXF 393, 13.1 µM (inactive); in the experiment on SF-539, 12.9 µM (inactive); in the experiment with SK-MEL-28, 1.87 µM (inactive). For the same molecule, the GI50 in the experiment with SK-OV-3 is 15.8 µM (inactive); in the experiment with SR it was 12.1 µM (inactive); with TK-10, 15.2 µM (inactive); in the experiment on UACC-257, 2.52 µM (inactive); in the experiment with UACC-62, 2.59 µM (inactive).
With `C=C1C2Oc3ccccc3C1N(c1ccccc1)O2` (stereo not given), the GI50 was 41.5 µM (inactive) in the experiment on 786-0; 21.3 µM (inactive) in the experiment on CCRF-CEM; 48.5 µM (inactive) in the experiment on COLO 205; 20.8 µM with HCT-15; 30.3 µM (inactive) in the experiment with HL-60; 66.7 µM (inactive) in the experiment with HOP-62. Further, the GI50 was 27.4 µM (inactive) in the experiment on K562; 46.7 µM (inactive) with Malme-3M; 27.2 µM (inactive) in the experiment with NCI-H522; 23.7 µM (inactive) in the experiment with RPMI-8226; 30.9 µM (inactive) in the experiment with RXF 393; 23.8 µM (inactive) in the experiment on SF-539. In addition, the GI50 with SK-MEL-28 is 58.1 µM (inactive); in the experiment on SK-OV-3 it was 64.3 µM (inactive); in the experiment on SR, 30.5 µM (inactive); in the experiment on TK-10, 84.9 µM (inactive); with UACC-257 it was 40.6 µM (inactive).
On to `CCCCc1c2c(nc3c1CCCC3=O)C(=O)CCC2`, for which the GI50 with 786-0 is > 100 µM (inactive); in the experiment on CCRF-CEM, > 100 µM (inactive); in the experiment with COLO 205, > 100 µM (inactive); in the experiment with HCT-15, greater than 100 µM; with HL-60, > 100 µM (inactive); in the experiment with HOP-62 it was > 100 µM (inactive). Further, the GI50 with K562, in the experiment on Malme-3M, in the experiment with NCI-H522, in the experiment with RPMI-8226, in the experiment with RXF 393 and in the experiment with SF-539 was > 100 µM (inactive) each time. The GI50 in the experiment on SK-MEL-28, with SK-OV-3, in the experiment with SR, with TK-10, in the experiment with UACC-257 and in the experiment on UACC-62 was > 100 µM (inactive) throughout.
For `CCCCCCCCCCNC(=S)OC`, the GI50 in the experiment with 786-0 is 49.3 µM (inactive); in the experiment with CCRF-CEM, 24.3 µM (inactive); in the experiment on HCT-15 it was 24.4 µM; in the experiment with HL-60, 16.7 µM (inactive); in the experiment with HOP-62, > 100 µM (inactive); in the experiment on K562 it was 29.2 µM (inactive). The GI50 was 69.8 µM (inactive) with Malme-3M; 20.2 µM (inactive) with NCI-H522; 13.2 µM (inactive) in the experiment with RPMI-8226; 33.7 µM (inactive) in the experiment with RXF 393; 64.7 µM (inactive) with SF-539; 51.2 µM (inactive) with SK-MEL-28. The GI50 was > 100 µM (inactive) with SK-OV-3; 13.7 µM (inactive) in the experiment on SR; 98.2 µM (inactive) in the experiment with TK-10; 23.8 µM (inactive) in the experiment on UACC-257; 25 µM (inactive) with UACC-62.
In the case of `CCN(CC)CCCNC(=O)C1COc2cc(-c3cc(=O)c4ccccc4o3)ccc2O1` (stereo not given), the GI50 with 786-0 is 66.8 µM (inactive); in the experiment with CCRF-CEM, 43.8 µM (inactive); with COLO 205, 25.1 µM (inactive); in the experiment on HCT-15, 53 µM; in the experiment on HL-60 it was 36.9 µM (inactive); in the experiment on HOP-62, > 100 µM (inactive). Further, the GI50 in the experiment on K562 is 36.6 µM (inactive); with Malme-3M, 20.4 µM (inactive); with NCI-H522, 33.3 µM (inactive); in the experiment with RPMI-8226, > 100 µM (inactive); with RXF 393, 39.8 µM (inactive); with SF-539, 19.5 µM (inactive). Moreover, the GI50 in the experiment with SK-MEL-28 was 20.6 µM (inactive); with SK-OV-3, > 100 µM (inactive); with SR, 19.9 µM (inactive); in the experiment with TK-10 it was 42.4 µM (inactive); in the experiment on UACC-257, 21.6 µM (inactive); in the experiment on UACC-62, 45.9 µM (inactive).
`O=C(O)/C(Cl)=C(\Cl)C(=O)c1ccccc1`: the GI50 is > 100 µM (inactive) in the experiment with 786-0; > 100 µM (inactive) in the experiment on CCRF-CEM; > 100 µM (inactive) in the experiment with COLO 205; greater than 100 µM with HCT-15; > 100 µM (inactive) in the experiment on HL-60; > 100 µM (inactive) in the experiment with HOP-62. Besides, the GI50 in the experiment with K562, in the experiment on Malme-3M, in the experiment on NCI-H522, in the experiment with RXF 393, in the experiment with SF-539 and with SK-MEL-28 was > 100 µM (inactive) in each case. In addition, the GI50 in the experiment on SK-OV-3, in the experiment with SR, in the experiment on TK-10, in the experiment with UACC-257 and with UACC-62 was > 100 µM (inactive) throughout.
Consider `O=C1OC(c2ccccc2)(c2ccccc2)c2ccc3ccc(F)cc3c21`, for which the GI50 was > 100 µM (inactive) with 786-0; 31.3 µM (inactive) with CCRF-CEM; > 100 µM (inactive) with COLO 205; 35.5 µM in the experiment on HCT-15; 9.4 µM (inactive) in the experiment on HL-60; > 100 µM (inactive) in the experiment with HOP-62. Also, the GI50 was 6.28 µM (inactive) in the experiment on K562; > 100 µM (inactive) in the experiment on Malme-3M; 51.1 µM (inactive) in the experiment on NCI-H522; > 100 µM (inactive) with RPMI-8226; > 100 µM (inactive) in the experiment with RXF 393; > 100 µM (inactive) with SF-539. Also, the GI50 was > 100 µM (inactive) in the experiment on SK-MEL-28; > 100 µM (inactive) with SK-OV-3; 10.7 µM (inactive) with SR; > 100 µM (inactive) in the experiment on TK-10; 37.1 µM (inactive) in the experiment on UACC-257; 26.9 µM (inactive) in the experiment on UACC-62.
Take `C1=Nc2ccccc2Cn2nncc21`: the GI50 in the experiment with CCRF-CEM is 49.9 µM (inactive); in the experiment on COLO 205 it was > 100 µM (inactive); in the experiment with HCT-15, 41.8 µM; in the experiment with HL-60 it was 25.4 µM (inactive); in the experiment on HOP-62, > 100 µM (inactive); in the experiment on K562, 35.2 µM (inactive). The GI50 with Malme-3M is 63 µM (inactive); with NCI-H522, 32.7 µM (inactive); in the experiment with RPMI-8226, > 100 µM (inactive); with RXF 393, > 100 µM (inactive); in the experiment with SF-539 it was 28.6 µM (inactive); with SK-MEL-28, 80.7 µM (inactive). In addition, the GI50 in the experiment with SK-OV-3 was > 100 µM (inactive); in the experiment with SR, 60.3 µM (inactive); in the experiment with TK-10, > 100 µM (inactive); in the experiment with UACC-62, 23 µM (inactive).

Values taken from ChEMBL document CHEMBL1201862, “PubChem BioAssay data set” (2004).
